Laboratory results: article PMC4704828, “Effect of Methamphetamine on Spectral Binding, Ligand Docking and Metabolism of Anti-HIV Drugs with CYP3A4” (PLoS ONE, 2016)
Like-named read-outs stand apart in the source and are kept apart here.

Legend:
[1] = molecular target: CYP3A4 (Homo sapiens, UniProt P08684); test: biochemical
Protocol: Histidine tagged CYP3A4 enzyme was expressed in E. coli and purified on Ni-NTA agarose column as described previously. Briefly, CYP3A4 cDNA was introduced into TOPP3 strain of E. coli by transformation and the cells were plated on LB ampicillin plate with tetracycline. The next day, a viable and isolated colony was grown in TB media for 48 h to induce CYP3A4. The cultures were harvested by centrifugation and CYP3A4 was extracted from the membrane using detergent followed by ultracentrifugation. The supernatant was loaded on a Ni-NTA agarose column for further purification. The purified enzyme was dialyzed and final preparation was stored at -80^οC until use.
The spectral change was recorded by using a UV/Vis double beam spectrophotometer (6800 UV/VIS JENWAY spectrophotometer) as described earlier. Briefly, 0.5 μM of purified CYP3A4 enzyme was incubated with 2 ml of 0.1 M HEPES buffer for 3 min and distributed equally between the sample and reference cuvettes. Depending upon the solvent used to solubilize methamphetamine or PIs, equal quantities of either methanol or water was added into the reference cuvette with final volume of the external solvent <1%. Increasing concentrations of methamphetamine was added to the sample cuvette while the same volume of solvent was added into the reference cuvette and the spectral change was recorded. For experiments involving PIs, different concentrations of PIs were added into the sample cuvette and the spectral change was recorded with a 2 min interval between each addition. […] Type I ligands displace the heme water ligand, thus shifting the iron spin equilibrium towards the high-spin form resulting in a spectrum, which is characterized by an increase in the absorbance at 390 nm (high spin) and a decrease at 420 nm (low spin). Type II ligands containing nitrogen heterocycles replace the water ligand to stabilize the low-spin form resulting in a spectrum that is characterized by an increase in the spectrum at ~430 nm and a decrease at ~400 nm. The effect of methamphetamine on the spectral binding of PIs was determined by incubating the CYP3A4 enzyme with 100 μM of methamphetamine and titrating with increasing concentrations of PIs.
The KD and δAmax were determined by fitting the curve (absorbance vs. concentration) with hyperbolic equation using non-regression analysis in sigma plot 11 (Systat Software, San Jose, CA). The p-values were determined using One way ANOVA with Dunnet’s post-hoc test and values <0.05 were considered statistically significant.

[2] = system: CYP3A4; conditions: HLMs; for decrease in formation of hydroxy ritonavir: substrate ritonavir 2 μM
Protocol: Briefly, the metabolite formations were assessed in incubation mixtures (0.5 mL) containing 100 mM phosphate buffer (pH 7.4), HLMs (0.1 mg/mL), and 5 mM Mgcl2 [13, 14]. The incubation mixtures were pre-incubated with six different concentrations of Meth ranging from 3 μM to 1000 μM for 10 min, followed by the addition of 5 μl stock solution of PI. The entire mixture was incubated in water bath at 37°C for 15 min. […] Later, the reactions were initiated upon the addition of 100 μl of 25 mM NADPH (final concentration of 5 mM) solution to each of the tube and incubated in water bath at 37°C for 60 min. […] Then, the tubes were vortexed and centrifuged at 500 g for 10 min and supernatant was transferred into vials for analysis by LC-MS/MS.
Standard curves for each analyte with IS were generated in blank HLMs incubation mixture as described above. The carry over test was performed by injecting an extra blank following the injection of upper limit of quantitation (ULOQ) of the standard curve with an IS. The LC-MS/MS methods were developed for each analyte along with its metabolite using 3200 QTRAP LC-MS/MS system, AB Sciex. […] (Fig 1, Table 1). A source temperature of 500°C, ion spray voltage of 5500 V, curtain gas of 20, GS 1 & 2 of 50, and dwell time of 200 msec were used for the determination of all analytes. The MRM method parameters such as declustering potential (DP), entrance potential (EP), collision energy (CE), and collision cell exit potential (CXP), were listed in the Table 1 along with the MRM transitions.
All the analytes were separated on reverse phase XTerra ® MS C18 column (4.6X50mm, i.d, 3.5 μm) using a Shimadzu LC-20AD HPLC system (CA, USA). A binary gradient elution method comprising of mobile phases (acetonitrile with 0.1% formic acid and water with 0.1% formic acid) with a flow rate of 0.5 mL/min was employed. […] Data acquisition and analyses were performed using the Analyst 1.4.2 software package (Applied Biosystems, Foster City, CA, USA).

Sequence of CYP3A4 (Homo sapiens, UniProt P08684) (P08684 whole entry): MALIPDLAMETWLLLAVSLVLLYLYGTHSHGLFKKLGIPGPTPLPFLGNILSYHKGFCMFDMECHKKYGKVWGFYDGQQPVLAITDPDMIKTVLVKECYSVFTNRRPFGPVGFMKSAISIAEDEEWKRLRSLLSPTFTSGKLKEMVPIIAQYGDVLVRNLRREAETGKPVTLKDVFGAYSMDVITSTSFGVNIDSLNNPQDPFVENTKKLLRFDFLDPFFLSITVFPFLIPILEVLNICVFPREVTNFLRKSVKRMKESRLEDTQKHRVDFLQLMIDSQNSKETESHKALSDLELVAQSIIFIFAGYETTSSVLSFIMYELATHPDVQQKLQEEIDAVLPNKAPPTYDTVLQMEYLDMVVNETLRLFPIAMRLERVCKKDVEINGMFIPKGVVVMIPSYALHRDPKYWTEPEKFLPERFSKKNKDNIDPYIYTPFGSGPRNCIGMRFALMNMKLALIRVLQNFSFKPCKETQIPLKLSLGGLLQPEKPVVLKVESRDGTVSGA

COC(=O)N[C@H](C(=O)N[C@@H](Cc1ccccc1)[C@@H](O)CN(Cc1ccc(-c2ccccn2)cc1)NC(=O)[C@@H](NC(=O)OC)C(C)(C)C)C(C)(C)C [Atazanavir]
δAmax ([1]; human): 0.0045 ± 0.0002

Cc1c(O)cccc1C(=O)N[C@@H](CSc1ccccc1)[C@H](O)CN1C[C@H]2CCCC[C@H]2C[C@H]1C(=O)NC(C)(C)C [Nelfinavir]
δAmax ([1]; human): 0.0068 ± 0.0001

CCC[C@@]1(CCc2ccccc2)CC(O)=C([C@H](CC)c2cccc(NS(=O)(=O)c3ccc(C(F)(F)F)cn3)c2)C(=O)O1 [Tipranavir]
δAmax ([1]; human): 0.0050 ± 0.0005

CN[C@@H](C)Cc1ccccc1 [methamphetamine]
Kd ([1]; KD, methamphetamine alone titrated with CYP3A4, hyperbolic fit): 204 ± 18 µM
spectral transition (low to high spin) with CYP3A4 ([1]; at saturating concentration of methamphetamine): approximately 20%
type of spectral change upon binding to CYP3A4 ([1]; increase in absorbance at 390 nm, decrease at 418 nm): type I
δAmax ([1]; methamphetamine alone titrated with CYP3A4, hyperbolic fit): 0.016±0.001
decrease in formation of hydroxy ritonavir ([2]; 100 μM methamphetamine): 23.3 ± 3.8%
decrease in formation of hydroxy ritonavir ([2]; 1000 μM methamphetamine): 46.2 ± 3.3%
effect on metabolism of lopinavir (lopinavir M1 formation) ([2]; methamphetamine 3 μM to 1000 μM, substrate lopinavir 10 μM): did not affect
effect on metabolism of nelfinavir M8 (decrease in substrate concentration) ([2]; methamphetamine 3 μM to 1000 μM, substrate nelfinavir M-8 1 μM): did not affect
